From US7547690B2, “Compounds for the treatment of Hepatitis C” (Bristol-Myers Squibb Company, priority 2007, dated 2009)
Where two headings read alike, the source gives them in different places.

Key:
HCV NS5B = biological target: T1, HCV NS5B (Hepatitis C virus genotype 1b, UniProt Q9WMX2); assay: HCV NS5B RdRp enzyme assay (standard / modified); assay type: biochemical; details: HCV RdRp genotype 1b, standard or modified assay not specified
T1 construct: The protein was expressed with an 18 amino acid C-terminal truncation to enhance the solubility; made in house; host or cells: E. coli BL21(DE3)
T1 sequence (Q9WMX2 2420-2992): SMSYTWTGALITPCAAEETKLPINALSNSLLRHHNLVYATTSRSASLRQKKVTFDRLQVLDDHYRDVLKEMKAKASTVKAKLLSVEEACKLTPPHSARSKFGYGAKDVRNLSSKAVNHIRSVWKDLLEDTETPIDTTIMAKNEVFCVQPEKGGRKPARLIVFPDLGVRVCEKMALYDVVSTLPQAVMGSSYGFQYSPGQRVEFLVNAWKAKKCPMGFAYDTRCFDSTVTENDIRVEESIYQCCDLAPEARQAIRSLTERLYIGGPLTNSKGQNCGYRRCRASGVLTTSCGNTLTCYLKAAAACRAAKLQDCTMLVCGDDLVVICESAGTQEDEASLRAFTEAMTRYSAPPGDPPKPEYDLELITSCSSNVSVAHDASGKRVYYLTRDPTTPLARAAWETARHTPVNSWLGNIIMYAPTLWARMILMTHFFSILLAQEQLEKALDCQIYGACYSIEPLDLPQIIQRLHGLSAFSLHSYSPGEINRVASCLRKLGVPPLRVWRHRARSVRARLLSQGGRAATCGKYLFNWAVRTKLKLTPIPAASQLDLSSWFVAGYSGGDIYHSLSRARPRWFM
Protocol: HCV NS5B RdRp cloning, expression, and purification. The cDNA encoding the NS5B protein of HCV, genotype 1b, was cloned into the pET21a expression vector. The protein was expressed with an 18 amino acid C-terminal truncation to enhance the solubility. The E. coli competent cell line BL21(DE3) was used for expression of the protein. Cultures were grown at 37° C. for ˜4 hours until the cultures reached an optical density of 2.0 at 600 nm. The cultures were cooled to 20° C. and induced with 1 mM IPTG. Fresh ampicillin was added to a final concentration of 50 μg/ml and the cells were grown overnight at 20° C.
Cell pellets (3 L) were lysed for purification to yield 15-24 mgs of purified NS5B. The lysis buffer consisted of 20 mM Tris-HCl, pH 7.4, 500 mM NaCl, 0.5% triton X-100, 1 mM DTT, 1 mM EDTA, 20% glycerol, 0.5 mg/ml lysozyme, 10 mM MgCl2, 15 ug/ml deoxyribonuclease I, and Complete TM protease inhibitor tablets (Roche). After addition of the lysis buffer, frozen cell pellets were resuspended using a tissue homogenizer. To reduce the viscosity of the sample, aliquots of the lysate were sonicated on ice using a microtip attached to a Branson sonicator. The sonicated lysate was centrifuged at 100,000×g for 1 hr at 4° C. and filtered through a 0.2 μm filter unit (Corning).
The protein was purified using two sequential chromatography steps: Heparin sepharose CL-6B and polyU sepharose 4B (Pharmacia). The chromatography buffers were identical to the lysis buffer but contained no lysozyme, deoxyribonuclease I, MgCl2 or protease inhibitor and the NaCl concentration of the buffer was adjusted according to the requirements for charging the protein onto the column. Each column was eluted with a NaCl gradient which varied in length from 5-50 column volumes depending on the column type. After the final chromatography step, the resulting purity of the enzyme is >90% based on SDS-PAGE analysis. The enzyme was aliquoted and stored at −80° C.
Standard HCV NS5B RdRp enzyme assay. HCV RdRp genotype 1b assays were run in a final volume of 60 μl in 96 well plates (Corning 3600). The assay buffer is composed of 20 mM Hepes, pH 7.5, 2.5 mM KCl, 2.5 mM MgCl2, 1 mM DTT, 1.6 U RNAse inhibitor (Promega N2515), 0.01 mg/ml BSA (Sigma B6917), and 2% glycerol. All compounds were serially diluted (3-fold) in DMSO and diluted further in water such that the final concentration of DMSO in the assay was 2%. HCV RdRp genotype 1b enzyme was used at a final concentration of 28 nM. A polyA template was used at 6 nM, and a biotinylated oligo-dT12 primer was used at 180 nM final concentration. Template was obtained commercially (Amersham 27-4110). Biotinylated primer was prepared by Sigma Genosys. 3H-UTP was used at 0.6 μCi (0.29 μM total UTP). Reactions were initiated by the addition of enzyme, incubated at 30 ° C. for 60 min, and stopped by adding 25 μl of 50 mM EDTA containing SPA beads (4 μg/μl, Amersham RPNQ 0007). Plates were read on a Packard Top Count NXT after >1 hr incubation at room temperature.
Modified HCV NS5B RdRp enzyme assay. A modified enzyme assay was performed essentially as described for the standard enzyme assay except for the following: The biotinylated oligo dT12 primer was precaptured on streptavidin-coated SPA beads by mixing primer and beads in assay buffer and incubating at room temperature for one hour. Unbound primer was removed after centrifugation. The primer-bound beads were resuspended in 20 mM Hepes buffer, pH 7.5 and used in the assay at final concentrations of 20 nM primer and 0.67 μg/μl beads. Order of addition in the assay: enzyme (1.75 nM) was added to diluted compound followed by the addition of a mixture of template (0.36 nM), 3H-UTP (0.6 μCi, 0.29 μM), and primer-bound beads, to initiate the reaction; concentrations given are final. Reactions were allowed to proceed for 4 hours at 30° C.
IC50 values for compounds were determined using seven different [I]. […]

HCV replicon cells = assay: HCV replicon FRET / luciferase assay; assay type: cell-based; details: 50% reduction in FRET or luciferase activity in HCV replicon cells
Protocol: FRET Assay Preparation. The HCV FRET screening assay was performed in 96-well cell culture plates. The FRET peptide (Anaspec, Inc.) (Taliani et al., Anal. Biochem. 1996, 240, 60-67) contains a fluorescence donor, EDANS, near one end of the peptide and an acceptor, DABCYL, near the other end. The fluorescence of the peptide is quenched by […] resonance energy transfer (RET) between the donor and the acceptor, but as the NS3 protease cleaves the peptide the products are released from RET quenching and the fluorescence of the donor becomes apparent. The assay reagent was made as follows: 5× cell Luciferase cell culture lysis reagent from Promega (#E153A) diluted to 1× with dH2O, NaCl added to 150 mM final, the FRET peptide diluted to 20 μM final from a 2 mM stock.
To prepare plates, HCV replicon cells, with or without a Renilla luciferase reporter gene, were trypsinized and plated in a 96-well plate with titrated test compounds added in columns 3 through 12; columns 1 and 2 contained a control compound (HCV control inhibitor), and the bottom row contained cells with DMSO only. The plates were then placed in a CO2 incubator at 37° C.
Assays. Subsequent to addition of the test compounds described above (FRET Assay Preparation), at various times the plate was removed and Alamar blue solution (Trek Diagnostics, #00-100) was added to measure cellular toxicity. After reading in a Cytoflour 4000 instrument (PE Biosystems), plates were rinsed with PBS and then used for FRET assay by the addition of 30 ul of the FRET peptide assay reagent described above (FRET Assay Preparation) per well. The plate was then placed into the Cytoflour 4000 instrument which had been set to 340 excite/490 emission, automatic mode for up to 20 cycles and the plate read in a kinetic mode. Typically, the signal to noise using an endpoint analysis after the reads was at least three-fold. Alternatively, after Alamar blue reading, plates were rinsed with PBS, then used for luciferase assay using the Promega Dual-Glo Luciferase Assay System or the Promega EnduRen Live Cell Substrate assay.
Compound analysis was performed by quantification of the relative HCV replicon inhibition and the relative cytotoxicity values. To calculate cytoxicity values, the average Alamar Blue fluorescence signals from the control wells were set as 100% non-toxic. The individual signals in each of the compound test wells were then divided by the average control signal and multiplied by 100% to determine […]. To calculate the HCV replicon inhibition values, an average background value was obtained from the two wells containing the highest amount of HCV control inhibitor at the end of the assay period. These numbers were similar to those obtained from naïve Huh-7 cells. The background numbers were then subtracted from the average signal obtained from the control wells and this number was used as 100% activity. The individual signals in each of the compound test wells were then divided by the averaged control values after background subtraction and multiplied by 100% to determine percent activity. EC50 values were calculated as the concentration which caused a 50% reduction in FRET or luciferase activity. The two numbers generated for the compound plate, percent cytoxicity and percent activity, were used to determine compounds of interest for further analysis.

[1] = Hepatitis C virus, read-out: EC50

Row | SMILES | IC50 (HCV NS5B; read-out: IC50) [µM] | EC50 (HCV replicon cells; [1]) [µM] | EC50 (HCV replicon cells; read-out: EC50) [µM] | IC50 (HCV NS5B) [µM] | EC50 (HCV replicon cells) [µM]
1 | COc1ccc2c(c1)C1CC1(C(=O)N1C3CN(C)CC1CN(C(C)C)C3)Cn1c-2c(C2CCCCC2)c2ccc(C(=O)NS(=O)(=O)N(C)C)cc21 (stereo not shown) | 0.0024 to 0.5 | 0.0024 to 0.5 | – | – | –
2 | COc1ccc2c(c1)C1CC1(S(=O)(=O)N1C3CC1CN(C)C3)Cn1c-2c(C2CCCCC2)c2ccc(C(=O)NS(=O)(=O)N3CCOCC3)cc21 (stereo not shown) | 0.0024 to 0.5 | 0.0024 to 0.5 | – | – | –
3 | COc1ccc2c(c1)C1CC1(C(=O)N1CCN3CCC1CC3)Cn1c-2c(C2CCCCC2)c2ccc(C(=O)NS(=O)(=O)C(C)C)cc21 (stereo not shown) | 0.0024 to 0.5 | 0.0024 to 0.5 | – | – | –
4 | COc1ccc2c(c1)C1CC1(C(=O)N1[C@@H]3C[C@H]1CN(C(=O)N(C)C)C3)Cn1c-2c(C2CCCCC2)c2ccc(C(=O)NS(=O)(=O)N(C)C)cc21 (stereo partly shown) | 0.0024 to 0.5 | 0.0024 to 0.5 | – | – | –
5 | COc1ccc2c(c1)C1CC1(C(=O)N1C[C@H]3C[C@@H]1CN3C(=O)OC(C)(C)C)Cn1c-2c(C2CCCCC2)c2ccc(C(=O)NS(=O)(=O)C(C)C)cc21 (stereo partly shown) | 0.0024 to 0.5 | 0.0024 to 0.5 | – | – | –
6 | CCN1C[C@H]2C[C@@H]1CN2C(=O)C12CC1c1cc(OC)ccc1-c1c(C3CCCCC3)c3ccc(C(=O)NS(=O)(=O)N(C)C)cc3n1C2 (stereo partly shown) | 0.0024 to 0.5 | 0.0024 to 0.5 | – | – | –
7 | COc1ccc2c(c1)[C@@H]1C[C@]1(C(=O)N1CC3CCC1CN3C)Cn1c-2c(C2CCCCC2)c2ccc(C(=O)NS(=O)(=O)N(C)C)cc21 (stereo partly shown) | 0.0024 to 0.5 | 0.0024 to 0.5 | – | – | –
8 | COc1ccc2c(c1)[C@@H]1C[C@]1(C(=O)N1CC3CC(C1)N3C)Cn1c-2c(C2CCCCC2)c2ccc(C(=O)NS(=O)(=O)N(C)C)cc21 | 0.0024 to 0.5 | 0.0024 to 0.5 | – | – | –
9 | COc1ccc2c(c1)[C@@H]1C[C@]1(C(=O)N1C[C@@H]3C[C@H]1CN3C(=O)OC(C)(C)C)Cn1c-2c(C2CCCCC2)c2ccc(C(=O)NS(=O)(=O)N(C)C)cc21 | 0.0024 to 0.5 | 0.0024 to 0.5 | – | – | –
10 | COc1ccc2c(c1)C1CC1(C(=O)N1CCN3CCC1C3)Cn1c-2c(C2CCCCC2)c2ccc(C(=O)NS(=O)(=O)N(C)C)cc21 (stereo not shown) | 0.0024 to 0.5 | 0.0024 to 0.5 | – | – | –
11 | COc1ccc2c(c1)C1CC1(C(=O)N1CCN3CCC1CC3)Cn1c-2c(C2CCCCC2)c2ccc(C(=O)NS(=O)(=O)N3CCN(C)CC3)cc21 (stereo not shown) | 0.0024 to 0.5 | 0.0024 to 0.5 | – | – | –
12 | COc1ccc2c(c1)C1CC1(C(=O)N1[C@@H]3C[C@H]1CN(C)C3)Cn1c-2c(C2CCCCC2)c2ccc(C(=O)NS(=O)(=O)N3CCC3)cc21 (stereo partly shown) | 0.0024 to 0.5 | 0.0024 to 0.5 | – | – | –
13 | CCN1C[C@H]2C[C@@H]1CN2C(=O)C12CC1c1cc(OC)ccc1-c1c(C3CCCCC3)c3ccc(C(=O)NS(=O)(=O)C4CC4)cc3n1C2 (stereo partly shown) [drawing 44] | 0.0024 to 0.5 | – | 0.0024 to 0.5 | – | –
14 | COc1ccc2c(c1)[C@@H]1C[C@]1(C(=O)N1C3CCC1C1CCC3N1C)Cn1c-2c(C2CCCCC2)c2ccc(C(=O)NS(=O)(=O)N(C)C)cc21 [drawing 161] | – | – | – | 0.0024 to 0.5 | 0.0024 to 0.5
15 | COc1ccc2c(c1)[C@@H]1C[C@]1(C(=O)N1C3CCCC1C(=O)N(C)C3=O)Cn1c-2c(C2CCCCC2)c2ccc(C(=O)NS(=O)(=O)N(C)C)cc21 | 0.0024 to 0.5 | 0.0024 to 0.5 | – | – | –
16 | COc1ccc2c(c1)C1CC1(C(=O)N1C3COCC1CN(C(C)C)C3)Cn1c-2c(C2CCCCC2)c2ccc(C(=O)NS(=O)(=O)N(C)C)cc21 (stereo not shown) | 0.0024 to 0.5 | 0.0024 to 0.5 | – | – | –
17 | COc1ccc2c(c1)C1CC1(C(=O)N1C[C@H]3C[C@@H](C1)c1cccc(=O)n1C3)Cn1c-2c(C2CCCCC2)c2ccc(C(=O)NS(=O)(=O)N(C)C)cc21 (stereo partly shown) | < 0.07 | 0.0024 to 0.5 | – | – | –
18 | CCS(=O)(=O)NC(=O)c1ccc2c(C3CCCCC3)c3n(c2c1)CC1(C(=O)N2C4CCCC2CN(C)C4)CC1c1cc(OC)ccc1-3 (stereo not shown) | 0.0024 to 0.5 | 0.0024 to 0.5 | – | – | –
19 | COc1ccc2c(c1)C1CC1(C(=O)N1C3CC1CN(C)C3)Cn1c-2c(C2CCCCC2)c2ccc(C(=O)NS(=O)(=O)CC(C)C)cc21 (stereo not shown) | 0.0024 to 0.5 | 0.0024 to 0.5 | – | – | –
20 | COc1ccc2c(c1)C1CC1(C(=O)N1[C@@H]3C[C@H]1CN(C)C3)Cn1c-2c(C2CCCCC2)c2ccc(C(=O)NS(N)(=O)=O)cc21 (stereo partly shown) | 0.0024 to 0.5 | 0.0024 to 0.5 | – | – | –
21 | COc1ccc2c(c1)C1CC1(C(=O)N1C3CCCC1CN(C)C3)Cn1c-2c(C2CCCCC2)c2ccc(C(=O)NS(C)(=O)=O)cc21 (stereo not shown) | 0.0024 to 0.5 | 0.0024 to 0.5 | – | – | –
22 | CCC(C)S(=O)(=O)NC(=O)c1ccc2c(C3CCCCC3)c3n(c2c1)CC1(C(=O)N2C4COCC2COC4)CC1c1cc(OC)ccc1-3 (stereo not shown) | 0.0024 to 0.5 | 0.0024 to 0.5 | – | – | –
23 | CCN1C[C@H]2C[C@@H]1CN2C(=O)C12CC1c1cc(OC)ccc1-c1c(C3CCCCC3)c3ccc(C(=O)NS(C)(=O)=O)cc3n1C2 (stereo partly shown) | 0.0024 to 0.5 | 0.0024 to 0.5 | – | – | –
24 | COc1ccc2c(c1)C1CC1(C(=O)N1C3CC1CN(Cc1ccccc1)C3)Cn1c-2c(C2CCCCC2)c2ccc(C(=O)NS(=O)(=O)C3CCC3)cc21 (stereo not shown) | 0.0024 to 0.5 | 0.5 to 5 | – | – | –
25 | COc1ccc2c(c1)C1CC1(C(=O)N1[C@@H]3C[C@H]1CN(C(C)=O)C3)Cn1c-2c(C2CCCCC2)c2ccc(C(=O)NS(=O)(=O)N(C)C)cc21 (stereo partly shown) | 0.0024 to 0.5 | 0.0024 to 0.5 | – | – | –
26 | COc1ccc2c(c1)C1CC1(C(=O)N1C3CC1CN(C)C3)Cn1c-2c(C2CCCCC2)c2ccc(C(=O)NS(=O)(=O)CC3CC3)cc21 (stereo not shown) | 0.0024 to 0.5 | 0.0024 to 0.5 | – | – | –
